Experiments:
[1] = system: waterhemp containing a Gly210 deficiency in PPO2; assay: Foliar spray pot test in greenhouse, herbicidal effect; type: in vivo, Amaranthus tuberculatus; conditions: 200 L/ha, rating 0 to 100
[2] = system: palmer amaranth containing a Gly399Ala mutation in PPO2; assay: as above; type: in vivo, Amaranthus palmeri; conditions: 200 L/ha, rating 0 to 100
[3] = system: PPO inhibitor-resistant weeds; assay: Pot tests with crops in greenhouse (Examples 73 to 2304)
Protocol: On the same day, compound X is applied to the surface of soil so that the application rate of the compound X is 10, 20, 40, or 80 g/ha and the spray liquid amount is 200 L/ha. The plastic pot is then placed in a greenhouse, and at 7 days after the application, soybeans are seeded, and further at 14 days after seeding the soybeans, the effect on the weeds and crop injuries on the soybeans are investigated.
On the same day, compound X is applied to the surface of soil so that the application rate of the compound X is 10, 20, 40, or 80 g/ha and the spray liquid amount is 200 L/ha. The soybeans are then cultivated in a greenhouse, and at 21 days after seeding, the effect on the weeds and crop injuries on the soybeans are investigated.
The soybeans are then cultivated in a greenhouse, and at 21 days after seeding, compound X is applied to the stem and leaf so that the application rate of the compound X is 10, 20, 40, or 80 g/ha and the spray liquid amount is 200 L/ha. Further, the soybeans are cultivated in the greenhouse, and at 14 days after the application of compound X, the effect on the weeds and crop injuries on the soybeans are investigated.

[4] = Example 2305: plant height 10 cm, sprayed 5 g/ha, 14 days after
[5] = Example 2306: plant height 30 cm, sprayed 20 g/ha, 7 days after
[6] = Examples 289 to 432: as Examples 1 to 144, XtendiMax added at 1 pint/acre (560 g/ha)
[7] = Examples 433 to 576: as Examples 1 to 144, RoundupPowerMax 32 fluid ounce/acre and XtendiMax 1 pint/acre added

Structure (SMILES)	Herbicidal effect [1, 4]	Herbicidal effect [1, 5]	Herbicidal effect [2, 4]	Herbicidal effect [2, 5]	effect on the weeds [3, 6]	effect on the weeds [3, 7]	effect on the weeds ([3]; Examples 73 to 144: as Examples 1 to 72, compound Y instead of compound X)
CCOC(=O)COc1ccccc1Oc1nc(-n2c(=O)cc(C(F)(F)F)n(C)c2=O)c(F)cc1Cl [compound X]	60	45	100	97	effective control effect	effective control effect	–
CCOC(=O)COc1ncccc1Oc1nc(-n2c(=O)cc(C(F)(F)F)n(C)c2=O)c(F)cc1Cl [compound Y]	–	–	–	–	effective control effect	effective control effect	effective control effect
